According to ChEMBL document CHEMBL1131649, “A novel series of N-(hexahydro-1,4-diazepin-6-yl) and N-(hexahydroazepin- 3-yl)benzamides with high affinity for 5-HT3 and dopamine D2 receptors” (Bioorg Med Chem Lett, 1998):

Key:
Type in all cases: cell membranes
[1] = molecular target: T1, Serotonin 3 (5-HT3) receptor (Rattus norvegicus, UniProt P35563+Q9JJ16); experiment: Binding affinity against 5-hydroxytryptamine 3 receptor in rat cortical membrane using [3H]GR-65630 as radioligand
T1 sequence (P35563 whole entry): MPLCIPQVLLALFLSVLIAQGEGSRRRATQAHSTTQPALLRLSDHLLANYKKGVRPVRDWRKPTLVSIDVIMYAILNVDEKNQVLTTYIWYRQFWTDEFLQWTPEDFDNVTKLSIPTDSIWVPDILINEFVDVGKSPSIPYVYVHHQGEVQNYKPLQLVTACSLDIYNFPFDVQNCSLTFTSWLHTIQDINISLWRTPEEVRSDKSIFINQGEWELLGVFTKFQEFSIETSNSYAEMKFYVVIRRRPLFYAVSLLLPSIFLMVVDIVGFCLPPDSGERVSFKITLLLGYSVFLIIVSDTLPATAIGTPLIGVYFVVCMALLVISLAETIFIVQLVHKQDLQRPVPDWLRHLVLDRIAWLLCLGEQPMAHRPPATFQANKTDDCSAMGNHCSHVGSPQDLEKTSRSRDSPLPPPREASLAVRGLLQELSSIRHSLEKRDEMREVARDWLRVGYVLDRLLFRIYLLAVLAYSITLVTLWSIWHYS
T1 sequence (Q9JJ16 whole entry): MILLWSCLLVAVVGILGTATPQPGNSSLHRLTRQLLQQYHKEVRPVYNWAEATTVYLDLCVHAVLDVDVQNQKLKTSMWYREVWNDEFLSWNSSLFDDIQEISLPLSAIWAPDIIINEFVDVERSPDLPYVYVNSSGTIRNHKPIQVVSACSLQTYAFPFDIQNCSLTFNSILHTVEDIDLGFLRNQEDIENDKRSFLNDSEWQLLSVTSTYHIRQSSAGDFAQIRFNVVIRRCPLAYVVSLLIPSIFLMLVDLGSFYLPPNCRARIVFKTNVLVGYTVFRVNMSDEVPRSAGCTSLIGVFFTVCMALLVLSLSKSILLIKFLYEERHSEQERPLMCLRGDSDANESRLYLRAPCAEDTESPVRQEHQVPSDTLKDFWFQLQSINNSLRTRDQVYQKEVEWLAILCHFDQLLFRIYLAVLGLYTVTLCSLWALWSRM

D(2) dopamine receptor [2] = molecular target: T2, D(2) dopamine receptor (Rattus norvegicus, UniProt P61169); experiment: Binding affinity against dopamine D2 receptor in rat brain synaptic membrane using [3H]-spiperone as radioligand
T2 sequence (P61169 whole entry): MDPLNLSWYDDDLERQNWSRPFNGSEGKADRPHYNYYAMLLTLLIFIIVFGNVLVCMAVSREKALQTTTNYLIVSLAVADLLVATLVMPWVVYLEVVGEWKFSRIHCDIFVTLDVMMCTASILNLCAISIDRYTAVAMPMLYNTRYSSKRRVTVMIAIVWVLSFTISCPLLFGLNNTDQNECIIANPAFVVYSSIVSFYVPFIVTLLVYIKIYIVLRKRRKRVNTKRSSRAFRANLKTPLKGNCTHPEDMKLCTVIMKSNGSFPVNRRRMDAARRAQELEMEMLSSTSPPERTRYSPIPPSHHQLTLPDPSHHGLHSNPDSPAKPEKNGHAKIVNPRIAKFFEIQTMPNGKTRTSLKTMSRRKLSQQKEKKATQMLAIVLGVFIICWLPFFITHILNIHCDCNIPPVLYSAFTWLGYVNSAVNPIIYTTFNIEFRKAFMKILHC

D(2) dopamine receptor [3] = molecular target: T2, D(2) dopamine receptor; experiment: Compound was tested for binding affinity against Dopamine receptor D2 in rat brain synaptic membrane using [3H]-spiperone as radioligand

| SMILES | IC50 [1] | IC50 (D(2) dopamine receptor [2]) | IC50 (D(2) dopamine receptor [3]) |
| --- | --- | --- | --- |
| COc1cc(N)c(Cl)cc1C(=O)NC1CCCCN(C(C)C)C1 (stereo unspecified) | 640 nM | 87 nM | – |
| CCN1CCCCC(NC(=O)c2cc(Cl)c(NC)cc2OC)C1 (stereo unspecified) | 6.6 nM | 11 nM | – |
| CCN1CCN(C)C[C@H](NC(=O)c2cc(Cl)c(NC)cc2OC)C1 | 1.5 nM | 320 nM | – |
| CCNc1cc(OC)c(C(=O)NC2CN(C)CCN(CC)C2)cc1Cl (stereo unspecified) | 1.9 nM | 181 nM | – |
| CCNc1cc(OC)c(C(=O)NC2CCCCN(CC)C2)cc1Cl (stereo unspecified) | 50 nM | 25 nM | – |
| COc1cc(N)c(Cl)cc1C(=O)NC1CN(C)CCN(C)C1 | 9.6 nM | – | > 1000 nM |
| CCN1CCN(C)C[C@@H](NC(=O)c2cc(Cl)c(N)cc2OC)C1 | 12 nM | 87 nM | – |
| CCN1CCCC[C@H](NC(=O)c2cc(Cl)c(NC)cc2OC)C1 | 4.5 nM | 367 nM | – |
| CCCN1CCN(C)CC(NC(=O)c2cc(Cl)c(N)cc2OC)C1 (stereo unspecified) | 24 nM | 218 nM | – |
| Cc1nccn1CC1CCc2c(c3ccccc3n2C)C1=O (stereo unspecified) [ONDANSETRON] | – | > 1000 nM | – |
| CCCN1CCCCC(NC(=O)c2cc(Cl)c(N)cc2OC)C1 (stereo unspecified) | 37 nM | 57 nM | – |
| CCN1CCCC[C@@H](NC(=O)c2cc(Cl)c(NC)cc2OC)C1 | 97 nM | 4.5 nM | – |
| COc1cc(N)c(Cl)cc1C(=O)NC1CCCCN(C)C1 (stereo unspecified) | 36 nM | – | – |
| CCN1CCCC[C@@H](NC(=O)c2cc(Cl)c(N)cc2OC)C1 | 134 nM | 19 nM | – |
| CCN1CCN(C)C[C@H](NC(=O)c2cc(Cl)c(N)cc2OC)C1 | 7 nM | 517 nM | – |
| CCN1CCN(C)CC(NC(=O)c2cc(Cl)c(NC)cc2OC)C1 (stereo unspecified) | 4.8 nM | 61 nM | – |
| CCN1CCN(C)CC(NC(=O)c2cc(Cl)c(N)cc2OC)C1 (stereo unspecified) | 8.5 nM | 127 nM | – |
| CCN1CCCC[C@H](NC(=O)c2cc(Cl)c(N)cc2OC)C1 | 10 nM | > 1000 nM | – |
| CCN1CCCCC(NC(=O)c2cc(Cl)c(N)cc2OC)C1 (stereo unspecified) | 33 nM | 39 nM | – |
